Laboratory results as given in patent publication US20250368629A1, “FLAVONOID COMPOUNDS AND METHODS AND MATERIALS FOR USING FLAVONOID COMPOUNDS TO TREAT FIBROTIC CONDITIONS” (Mayo Foundation for Medical Education and Research, priority 2022, published 2025).
pEC50, pIC50: −log10 of the molar value.

How the values were obtained:
STK17B = target: T1, STK17B (Homo sapiens, UniProt O94768); test: Kinase dose response curve on STK17B; type: biochemical; settings: FIG. 4A, read-out: half maximal inhibitory concentration (IC50) on STK17B
T1 construct: purchased Reaction Biology
T1 sequence (O94768 1-372): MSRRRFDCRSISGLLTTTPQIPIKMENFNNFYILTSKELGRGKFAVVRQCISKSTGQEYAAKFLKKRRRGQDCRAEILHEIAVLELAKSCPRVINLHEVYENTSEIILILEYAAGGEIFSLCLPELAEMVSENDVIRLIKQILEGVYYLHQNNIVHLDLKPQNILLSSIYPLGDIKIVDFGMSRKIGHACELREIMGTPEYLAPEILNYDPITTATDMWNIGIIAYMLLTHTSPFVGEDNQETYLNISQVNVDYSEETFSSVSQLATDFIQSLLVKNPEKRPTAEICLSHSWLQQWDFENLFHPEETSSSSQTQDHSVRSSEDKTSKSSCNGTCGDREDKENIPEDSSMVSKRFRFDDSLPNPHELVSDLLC
Method: FIGS. 4A-4B show mechanism of action of F-4N. […] Dose response curves on STK17A and STK17B show half maximal inhibitory concentration (IC50) values of ˜200 nM. […] FIG. 4A. F-4N was sent to Reaction Biology to be tested against their entire wild-type kinase panel. 1 μM F-4N was tested in an ATP competition assay against 420+ kinases. Z-scores were calculated to identify true hits over noise.

Mdr2-/- mice = test: Mdr2-/- mouse model of PSC with established liver fibrosis, i.p. treatment; type: in vivo; settings: 10 mg/kg/daily i.p. for 14 days
Method: FIG. 6. Biochemical and histological examination of fibrosis in Mdr2^−/− mice treated with vehicle or F-4N. Mdr2^−/− mice (18-20 weeks old) with established liver fibrosis were treated with F-4N (10 mg/kg/daily i.p. n=10) or vehicle (i.p. n=10) for 14 days, then sacrificed the next day. Liver tissue and serum were collected for analysis. Left panel. […] Right panels.
Hydroxyproline content was measured using a hydroxyproline assay kit (Biovision) according to the manufacturer's instructions with slight modification. The liver tissues were weighed, homogenized in sterile water (10 mg of tissue per 100 μL H2O) and hydrolyzed in 12 M HCl in a pressure-tight, Teflon capped vial at 120° C. for 3 hours followed by filtration through a 45 μm Spin-X Centrifuge Tube filter (Corning). Ten μL of the hydrolyzed samples was dried in a Speed-Vac for 2 hours, followed by incubation with 100 μL of Chloramine T reagent for 5 minutes at room temperature and 100 μL of 4-(dimethylamino)benzaldehyde (DMAB) for 90 minutes at 60° C. The absorbance of oxidized hydroxyproline was determined at 560 nm. Hydroxyproline concentrations were calculated from a standard curve generated using known concentrations of trans-4-hydroxyl-L-proline. The total amount of protein isolated from the weighed tissues was determined by using a protein assay kit (Bio-Rad, absorbance at 595 nm). The amount of collagen was expressed in μg/mg total protein.
The slides were then stained with a solution containing 0.1% picrosirius red (Direct Red 80) and 0.1% fast green (counterstain) in saturated aqueous solution of picric acid, for 60 minutes at room temperature, followed by one wash in distilled water, de-hydration in 3 changes of 100% EtOH, clear in xylene and mount in resinous medium.
Serum alanine aminotransferase (ALT), alkaline phosphatase (ALP) and total bile acids were measured using a commercially available veterinary chemistry analyzer (VetScan 2, Abaxis).
RNA isolation using RNeasy Plus Mini Kit (Qiagen) according to the manufacturer's instructions. Isolated RNA (250 ng) was then used to synthesize cDNA using SuperScript VILO (Invitrogen). Quantitative PCR was performed using FastStart Essential DNA Green Master (Roche) and analyzed using a LightCycler 96 (Roche). Data are expressed as a fold change by ΔΔCt relative to glyceraldehyde-3-phosphate dehydrogenase (GAPDH).

[1] = Stability in human plasma; type: in vitro ADME
Method: The stability of F-4N in plasma was assessed (FIG. 27). Compounds were incubated with human or mouse plasma. The percent of F-4N recovered was analyzed by LC-MS. Warfarin was used as a control for stable compound, and propantheline was used as a control for an unstable compound. Analysis was performed by Cyprotex (Framingham, MA).

[2] = test system: Human adult lung fibroblasts (passage 3); test: Fibroblast activation (TGFβ, alpha-smooth muscle actin); type: cell-based; settings: Homo sapiens, Fibroblast; +2 ng/mL TGFβ, 96 hours, alpha-smooth muscle actin intensity
Method: Human adult lung fibroblasts (passage 3) were plated into 96-well plates and treated with the indicated compound (6-point dose-response) +2 ng/mL TGFβ to stimulated fibroblast activation. Cells were incubated for 96 hours, fixed using 4% PFA, permeabilized using 0.25% triton x-100, and stained using a primary antibody recognizing alpha-smooth muscle actin and a secondary fluorescent conjugated antibody, and DAPI. Cells were then imaged using a 4× objective on a Cytation5 microscope and alpha-smooth muscle actin intensity was quantified using automated software (Biotek Gen5). Data shown are the IC50 values for each compounds efficacy at reducing expression of alpha-smooth muscle actin, calculated from the calculated dose-response curves, N=3 independent.

O=c1c(O)c(-c2ccc(OCc3ccncc3)cc2)oc2ccccc12 [F—4N]
pIC50 (STK17B): ~6.70
reduction of liver collagen content (hydroxyproline assay) compared to vehicle control (Mdr2-/- mice): ~40%
Liver function tests: ALT, ALP and serum bile acid values (Mdr2-/- mice; compared to vehicle): significantly reduced
RT-PCR of whole liver RNA: Col1a1, Il6, Ccl2, Cdkn1a, Cdkn2a (Mdr2-/- mice; compared to vehicle): significantly reduced
Picrosirius red staining of liver collagen fibers (Mdr2-/- mice; particularly portal-to-portal areas): reduction of collagen fibers
stability in plasma (percent recovered, LC-MS) [1]: stable
pEC50 [2]: 5.74
